Measured values from ChEMBL document CHEMBL1201862, “PubChem BioAssay data set” (2004).
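Grown in 96-well plates, cells were treated for 48 hours with each compound at five concentrations. Insufficient inhibition: endpoint recorded as highest concentration tested. At the GI50, growth is halved.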 Calls of active or inactive are those of the source. Rule as the data show it: active = GI50 up to about 1.1 µM and inactive = higher.

What was measured:
Test in all cases: NCI anticancer screen, dose series, 48 h
OVCAR-5 = tested on: OVCAR-5
MDA-N = tested on: MDA-N
SW-620 = tested on: SW-620
LOX IMVI = tested on: LOX IMVI
M14 = tested on: M14
MOLT-4 = tested on: MOLT-4
NCI-H460 = tested on: NCI-H460
UO-31 = tested on: UO-31
SK-MEL-5 = tested on: SK-MEL-5
TK-10 = tested on: TK-10
OVCAR-8 = tested on: OVCAR-8
SF-268 = tested on: SF-268
HOP-92 = tested on: HOP-92
IGROV-1 = tested on: IGROV-1
T47D = tested on: T47D
CCRF-CEM = tested on: CCRF-CEM
SNB-75 = tested on: SNB-75
BT-549 = tested on: BT-549
UACC-62 = tested on: UACC-62
SK-MEL-28 = tested on: SK-MEL-28
MCF7 = tested on: MCF7
SNB-19 = tested on: SNB-19
Malme-3M = tested on: Malme-3M
NCI-H522 = tested on: NCI-H522
HCC 2998 = tested on: HCC 2998
SF-539 = tested on: SF-539
COLO 205 = tested on: COLO 205
RXF 393 = tested on: RXF 393
NCI-H226 = tested on: NCI-H226
ACHN = tested on: ACHN
786-0 = tested on: 786-0
HOP-62 = tested on: HOP-62
HT-29 = tested on: HT-29
DU-145 = tested on: DU-145
MDA-MB-435 = tested on: MDA-MB-435
NCI-H23 = tested on: NCI-H23
SR = tested on: SR
UACC-257 = tested on: UACC-257
HL-60 = tested on: HL-60
SK-MEL-2 = tested on: SK-MEL-2
A549 = tested on: A549
Hs-578T = tested on: Hs-578T
HCT-15 = tested on: HCT-15
RPMI-8226 = tested on: RPMI-8226
SN12C = tested on: SN12C
NCI/ADR-RES = tested on: NCI/ADR-RES
KM12 = tested on: KM12
CAKI-1 = tested on: CAKI-1
EKVX = tested on: EKVX
K562 = tested on: K562
OVCAR-3 = tested on: OVCAR-3
SK-OV-3 = tested on: SK-OV-3
HCT-116 = tested on: HCT-116
SF-295 = tested on: SF-295
OVCAR-4 = tested on: OVCAR-4
PC-3 = tested on: PC-3
U-251 = tested on: U-251
MDA-MB-231 = tested on: MDA-MB-231
A498 = tested on: A498

For Cc1ccc(-n2c(=O)c3nn4c(=O)n(-c5ccc(C)cc5)c(=O)c4nn3c2=O)cc1, the GI50 (OVCAR-5) was > 100 µM (inactive), the GI50 (MDA-N) was > 100 µM (inactive) and the GI50 (SW-620) was > 100 µM (inactive). For the same compound, the GI50 (LOX IMVI) was > 100 µM (inactive), the GI50 (M14) was > 100 µM (inactive) and the GI50 (MOLT-4) was > 100 µM (inactive). The GI50 (NCI-H460) was > 100 µM (inactive), the GI50 (UO-31) was > 100 µM (inactive) and the GI50 (SK-MEL-5) was > 100 µM (inactive). The GI50 (TK-10) was > 100 µM (inactive), the GI50 (OVCAR-8) was > 100 µM (inactive) and the GI50 (SF-268) was > 100 µM (inactive). The GI50 (HOP-92) was 45.6 µM (inactive), the GI50 (IGROV-1) was > 100 µM (inactive) and the GI50 (T47D) was > 100 µM (inactive). The GI50 (CCRF-CEM) was > 100 µM (inactive), the GI50 (SNB-75) was 58.3 µM (inactive) and the GI50 (BT-549) was > 100 µM (inactive). The GI50 (UACC-62) was > 100 µM (inactive), the GI50 (SK-MEL-28) was > 100 µM (inactive) and the GI50 (MCF7) was > 100 µM (inactive). The GI50 (SNB-19) was > 100 µM (inactive), the GI50 (Malme-3M) was > 100 µM (inactive) and the GI50 (NCI-H522) was > 100 µM (inactive). For the same compound, the GI50 (HCC 2998) was > 100 µM (inactive), the GI50 (SF-539) was > 100 µM (inactive) and the GI50 (COLO 205) was > 100 µM (inactive). The GI50 (RXF 393) was > 100 µM (inactive), the GI50 (NCI-H226) was > 100 µM (inactive) and the GI50 (ACHN) was > 100 µM (inactive). For the same compound, the GI50 (786-0) was > 100 µM (inactive), the GI50 (HOP-62) was > 100 µM (inactive) and the GI50 (HT-29) was > 100 µM (inactive). The GI50 (DU-145) was > 100 µM (inactive), the GI50 (MDA-MB-435) was > 100 µM (inactive) and the GI50 (NCI-H23) was > 100 µM (inactive). For the same compound, the GI50 (SR) was > 100 µM (inactive), the GI50 (UACC-257) was > 100 µM (inactive) and the GI50 (HL-60) was > 100 µM (inactive). The GI50 (SK-MEL-2) was > 100 µM (inactive), the GI50 (A549) was > 100 µM (inactive) and the GI50 (Hs-578T) was > 100 µM (inactive). The GI50 (HCT-15) was > 100 µM, the GI50 (RPMI-8226) was > 100 µM (inactive) and the GI50 (SN12C) was > 100 µM (inactive). The GI50 (NCI/ADR-RES) was > 100 µM (inactive), the GI50 (KM12) was > 100 µM (inactive) and the GI50 (CAKI-1) was > 100 µM (inactive). The GI50 (EKVX) was > 100 µM (inactive), the GI50 (K562) was > 100 µM (inactive) and the GI50 (OVCAR-3) was > 100 µM (inactive). The GI50 (SK-OV-3) was > 100 µM (inactive), the GI50 (HCT-116) was > 100 µM (inactive) and the GI50 (SF-295) was > 100 µM (inactive). For the same compound, the GI50 (OVCAR-4) was > 100 µM (inactive), the GI50 (PC-3) was > 100 µM (inactive) and the GI50 (U-251) was > 100 µM (inactive).

CC(C)(C)OC(=O)NC1CCCC1C(O)(C1=CCCC1)C1=CCCC1 (stereo unspecified) was tested, and the GI50 (OVCAR-5) was > 100 µM (inactive), the GI50 (MDA-N) was > 100 µM (inactive) and the GI50 (MDA-MB-231) was 43.2 µM (inactive). For the same compound, the GI50 (SW-620) was > 100 µM (inactive), the GI50 (LOX IMVI) was > 100 µM (inactive) and the GI50 (M14) was > 100 µM (inactive). The GI50 (MOLT-4) was > 100 µM (inactive), the GI50 (NCI-H460) was > 100 µM (inactive) and the GI50 (SK-MEL-5) was > 100 µM (inactive). For the same compound, the GI50 (OVCAR-8) was > 100 µM (inactive), the GI50 (SF-268) was > 100 µM (inactive) and the GI50 (HOP-92) was > 100 µM (inactive). For the same compound, the GI50 (IGROV-1) was > 100 µM (inactive), the GI50 (T47D) was 25.6 µM (inactive) and the GI50 (CCRF-CEM) was > 100 µM (inactive). For the same compound, the GI50 (SNB-75) was 48.1 µM (inactive), the GI50 (BT-549) was > 100 µM (inactive) and the GI50 (UACC-62) was 51.9 µM (inactive). The GI50 (SK-MEL-28) was > 100 µM (inactive), the GI50 (SNB-19) was > 100 µM (inactive) and the GI50 (HCC 2998) was > 100 µM (inactive). For the same compound, the GI50 (COLO 205) was > 100 µM (inactive), the GI50 (RXF 393) was > 100 µM (inactive) and the GI50 (NCI-H226) was > 100 µM (inactive). For the same compound, the GI50 (A498) was > 100 µM (inactive), the GI50 (ACHN) was > 100 µM (inactive) and the GI50 (786-0) was > 100 µM (inactive). The GI50 (HOP-62) was > 100 µM (inactive), the GI50 (HT-29) was 76.2 µM (inactive) and the GI50 (DU-145) was > 100 µM (inactive). The GI50 (MDA-MB-435) was > 100 µM (inactive), the GI50 (NCI-H23) was > 100 µM (inactive) and the GI50 (SR) was > 100 µM (inactive). For the same compound, the GI50 (UACC-257) was > 100 µM (inactive), the GI50 (HL-60) was > 100 µM (inactive) and the GI50 (SK-MEL-2) was > 100 µM (inactive). The GI50 (A549) was > 100 µM (inactive), the GI50 (Hs-578T) was > 100 µM (inactive) and the GI50 (HCT-15) was > 100 µM. The GI50 (RPMI-8226) was > 100 µM (inactive), the GI50 (SN12C) was > 100 µM (inactive) and the GI50 (NCI/ADR-RES) was > 100 µM (inactive). For the same compound, the GI50 (KM12) was > 100 µM (inactive), the GI50 (OVCAR-3) was > 100 µM (inactive) and the GI50 (SK-OV-3) was > 100 µM (inactive). For the same compound, the GI50 (HCT-116) was > 100 µM (inactive), the GI50 (OVCAR-4) was 67.6 µM (inactive) and the GI50 (PC-3) was > 100 µM (inactive). For the same compound, the GI50 (U-251) was > 100 µM (inactive).
